Patent publication US20230405095A1, “DOSING REGIMEN” (VIIV HEALTHCARE UK (NO. 7) LIMITED, priority 2022, published 2023)
Several values for one entry are separate records, joined by “and”; a condition that tells them apart may be missing. Identical values can stand only once. Like-named read-outs stand apart in the source and are kept apart here.

Experiments:
[1] = Blood pharmacokinetics of cabotegravir after a single subcutaneous administration with or without rHuPH20; assay type: in vivo, male Sprague-Dawley rats; settings: for Tmax / half-life / AUC(0-t) / Cmax / AUC (0-tlast) / T½: rat blood; for half-life: read-out: T½ (converted); for AUC(0-t): read-out: AUC (0-tlast)
Method: Cabotegravir (free acid) was supplied by the Department of Pharmaceutical Development, at GSK, Upper Providence (UP), as a wet bead milled suspension (WBM), of nominal 200 mg/mL active concentration, white to slightly pink in appearance to be used for subcutaneous (SC) injection. The test article was milled and supplied in an aqueous vehicle (see Table 1). The test article was filled into vials, stoppered, sealed and subjected to gamma sterilization at between 25-45 kGy.
Twelve male Sprague-Dawley rats (body weight approximately 275-300 grams upon arrival), from Charles River Laboratories, Raleigh, were used in this study. Rats were randomized by number one day prior to the start of study. All rats were euthanized at study end.
Dose volumes administered for cabotegravir (target concentration of 200 mg/mL) were based on animal weights obtained just prior to dosing to achieve a target dosage of 10 mg/kg (groups 1 and 2) and 5 mg/kg (groups 3 and 4). Test article was resuspended prior to dosing by inverting supplied vials and checking vial bottom for non-resuspended sediments. Syringes used to dose cabotegravir were weighed pre- and post-dose to determine exact amount of cabotegravir administered. Rats were lightly anesthetized under isoflurane for a short period to perform the dosing procedure. Injection sites were shaved immediately prior to dosing, wiped with alcohol and allowed to dry. For groups 1 and 3, the cabotegravir doses were injected subcutaneously into the lower scapular region. After removing the dosing needle, minimal, but adequate, pressure was applied to the skin at the injection site (i.e., to keep the site still and closed) for approximately 1 minute to enable coagulation and sealing of the puncture. The sites were observed immediately after the needle was withdrawn to note any dose leakage. For groups 2 and 4, the rHuPH20 was injected subcutaneously first (approximately 3000 units in 100 μL, these syringes were not weighed), immediately followed by the Cabotegravir injection with the goal of injecting both formulations in the same subcutaneous space of the lower scapular region. After removing the second dosing needle, minimal, but adequate, pressure was applied to the skin at the injection site (i.e., to keep the site still and closed) for approximately 1 minute to enable coagulation and sealing of the puncture. Any dose leakage was noted. Injection sites were monitored daily for the first week of study and then weekly for the remainder of the study and observations recorded. Body weights were recorded on day 0 and then weekly for the remainder of the study.
Blood samples were collected via lateral vein or tail tip amputation. On study Day 0, following subcutaneous injection, blood samples (approximately 75 μL/rat/time point) were collected into 500 μL K2 EDTA tubes at 1, 2, 4 and 8 hr. Samples were then collected at 24 hrs., 48 hrs., and on Days 3, 7, 14, 21, 28, 56 and 84. Exactly 75 μL of whole blood was pipetted into a new tube containing 75 μL of sterile water. Samples were vortexed and placed on dry ice immediately. Samples were stored at −80° C. until transferred to Yinghe Li (DMPK, US) for analysis.
Rat blood: water samples were analyzed for cabotegravir using an analytical method based on protein precipitation, followed by UPLC/MS/MS analysis. The lower limit of quantification (LLQ) for cabotegravir was 5 ng/mL using a 150 μL aliquot of rat blood: water with a higher limit of quantification (HLQ) of 20000 ng/mL. Analyst software version 1.7.1 was used to acquire and process LC-MS/MS data. The applicable analytical runs met all predefined run acceptance criteria.
Pharmacokinetic analysis of cabotegravir blood concentration-time data was performed by a non-compartmental method using Phoenix WinNonlin®, Version 8.1 software. All computations utilized nominal sampling times and doses for the study. […]

[2] = Clinical PK of single SC injection of CAB200 with rHuPH20 (Studies 212482 and 218012); assay type: in vivo, healthy adult participants; settings: SC with rHuPH20, dose level of 3200 mg or lower
Method: In a Phase 1 open-label, dose-escalation study to investigate the safety, tolerability and pharmacokinetics of single-dose administration of various CAB formulations with and without rHuPH20 in healthy adult participants, CAB200 at doses of 800, 1600 and 3200 mg have been administered with rHuPH20 (10,000 IU). rHuPH20 and CAB formulations were administered sequentially; subcutaneous (SC) administration by a health care provider (HCP) is via a butterfly needle and slow SC infusion in the abdominal SC tissue using a syringe pump.
A summary of CAB200 LA SC PK data with rHuPH20 is set forth in the Table below. • In Study 212482, single SC injection of CAB200 (2 mL/400 mg) with rHuPH20 (5000 units) was studied in Cohort 4 h. • In Study 218012, single SC injection of CAB200 with rHuPH20 was studied in cohorts A1 (4 mL/800 mg CAB200), A2 (8 mL/1600 mg CAB200) and A3 (16 mL/3200 mg CAB200). The dose of rHuPH20 was 10000 units. In both studies, rHuPH20 was injected first, followed by SC injection of CAB200.

[3] = CAB Cmax safety threshold; assay type: in vivo; settings: CAB plasma concentration; read-out: safety threshold: Cmax not associated with any toxicity
HIV-1 strains = settings: integrase strand transfer inhibitor; broad range of HIV-1 strains; cited from earlier work
[4] = male, Sprague-Dawley, rat, whole blood, sc, 5 mg/kg, single SC 5 mg/kg, with rHuPH20 approx. 3000 units SC (Group 4), mean ± SD
[5] = male, Sprague-Dawley, rat, whole blood, sc, 5 mg/kg, single SC 5 mg/kg, without rHuPH20 (Group 3), individual animals
[6] = male, Sprague-Dawley, rat, whole blood, sc, 5 mg/kg, single SC 5 mg/kg, without rHuPH20 (Group 3), mean ± SD
[7] = male, Sprague-Dawley, rat, whole blood, sc, 10 mg/kg, single SC 10 mg/kg, with rHuPH20 approx. 3000 units SC (Group 2), mean ± SD
[8] = single SC 5 mg/kg, with rHuPH20 approx. 3000 units SC (Group 4), individual animals, 5 mg/kg
[9] = single SC 5 mg/kg, without rHuPH20 (Group 3), individual animals, 5 mg/kg
[10] = single SC 10 mg/kg, with rHuPH20 approx. 3000 units SC (Group 2), individual animals, 10 mg/kg
[11] = single SC 10 mg/kg, without rHuPH20 (Group 1), individual animals, 10 mg/kg

`C[C@H]1CO[C@@H]2Cn3cc(C(=O)NCc4ccc(F)cc4F)c(=O)c(O)c3C(=O)N12` [Cabotegravir, N-((2,4-Difluorophenyl)methyl)-6-hydroxy-3-methyl-5,7-dioxo-2,3,5,7,11,11a hexahydro(1,3)oxazolo(3,2-a)pyrido(1,2-d)pyrazine-8-carboxamide] showed a Tmax ([1]; male, Sprague-Dawley, rat, whole blood, sc, 5 mg/kg, single SC 5 mg/kg, with rHuPH20 approx. 3000 units SC (Group 4), individual animals, read-out: Tmax) of 14.2 days, a half-life ([1]; male, Sprague-Dawley, rat, whole blood, sc, 5 mg/kg, single SC 5 mg/kg, with rHuPH20 approx. 3000 units SC (Group 4), individual animals) of 10 days and an AUC(0-t) [1, 4] of 2800 ± 993 µg·h/mL. The Cmax ([1]; male, Sprague-Dawley, rat, whole blood, sc, 5 mg/kg, single SC 5 mg/kg, with rHuPH20 approx. 3000 units SC (Group 4), mean ± SD, read-out: Cmax) was 3800 ± 1600 ng/mL, the half-life [1, 4] was 7.5 days and the Tmax ([1]; male, Sprague-Dawley, rat, whole blood, sc, 5 mg/kg, single SC 5 mg/kg, with rHuPH20 approx. 3000 units SC (Group 4), median, read-out: Tmax) was 14.2 days. It also gave an AUC(0-t) [1, 5] of 4540 µg·h/mL, a Cmax ([1]; male, Sprague-Dawley, rat, whole blood, sc, 5 mg/kg, single SC 5 mg/kg, without rHuPH20 (Group 3), individual animals, read-out: Cmax) of 7600 ng/mL and a Tmax ([1]; male, Sprague-Dawley, rat, whole blood, sc, 5 mg/kg, single SC 5 mg/kg, without rHuPH20 (Group 3), individual animals, read-out: Tmax) of 14.2 days. For the same compound, the half-life [1, 5] was 8.33 days, the AUC(0-t) [1, 6] was 4400 ± 903 µg·h/mL and the Cmax ([1]; male, Sprague-Dawley, rat, whole blood, sc, 5 mg/kg, single SC 5 mg/kg, without rHuPH20 (Group 3), mean ± SD, read-out: Cmax) was 7000 ± 1500 ng/mL. It also gave a half-life [1, 6] of 8.33 days, a Tmax ([1]; male, Sprague-Dawley, rat, whole blood, sc, 5 mg/kg, single SC 5 mg/kg, without rHuPH20 (Group 3), median, read-out: Tmax) of 14.2 days and an AUC(0-t) ([1]; male, Sprague-Dawley, rat, whole blood, sc, 10 mg/kg, single SC 10 mg/kg, with rHuPH20 approx. 3000 units SC (Group 2), individual animals) of 6280 µg·h/mL. The Cmax ([1]; male, Sprague-Dawley, rat, whole blood, sc, 10 mg/kg, single SC 10 mg/kg, with rHuPH20 approx. 3000 units SC (Group 2), individual animals, read-out: Cmax) was 10000 ng/mL, the Tmax ([1]; male, Sprague-Dawley, rat, whole blood, sc, 10 mg/kg, single SC 10 mg/kg, with rHuPH20 approx. 3000 units SC (Group 2), individual animals, read-out: Tmax) was 14.2 days and the AUC(0-t) [1, 7] was 7730 ± 1930 µg·h/mL. It also gave a Cmax ([1]; male, Sprague-Dawley, rat, whole blood, sc, 10 mg/kg, single SC 10 mg/kg, with rHuPH20 approx. 3000 units SC (Group 2), mean ± SD, read-out: Cmax) of 9100 ± 2100 ng/mL, a half-life [1, 7] of 15 days and a Tmax ([1]; male, Sprague-Dawley, rat, whole blood, sc, 10 mg/kg, single SC 10 mg/kg, with rHuPH20 approx. 3000 units SC (Group 2), median, read-out: Tmax) of 14.2 days. The AUC(0-t) ([1]; male, Sprague-Dawley, rat, whole blood, sc, 10 mg/kg, single SC 10 mg/kg, without rHuPH20 (Group 1), individual animals) was 5640 µg·h/mL, the Tmax ([1]; male, Sprague-Dawley, rat, whole blood, sc, 10 mg/kg, single SC 10 mg/kg, without rHuPH20 (Group 1), individual animals, read-out: Tmax) was 14.2 days and the half-life ([1]; male, Sprague-Dawley, rat, whole blood, sc, 10 mg/kg, single SC 10 mg/kg, without rHuPH20 (Group 1), mean ± SD (animal 12 excluded)) was 13.8 days. It also gave an AUC(0-t) ([1]; male, Sprague-Dawley, rat, whole blood, sc, 10 mg/kg, single SC 10 mg/kg, without rHuPH20 (Group 1), mean ± SD) of 7320 ± 2320 µg·h/mL, a Cmax ([1]; male, Sprague-Dawley, rat, whole blood, sc, 10 mg/kg, single SC 10 mg/kg, without rHuPH20 (Group 1), mean ± SD, read-out: Cmax) of 8000 ± 3500 ng/mL and a Tmax ([1]; male, Sprague-Dawley, rat, whole blood, sc, 10 mg/kg, single SC 10 mg/kg, without rHuPH20 (Group 1), median, read-out: Tmax) of 14.2 days. For the same compound, the “AUC (0-tlast)” value [1, 8] was 3348 µg·h/mL and 1654 µg·h/mL and 3397 µg·h/mL, the Cmax [1, 8] was 3200 ng/mL and 2600 ng/mL and 5700 ng/mL and the Tmax [1, 8] was 7.08 days. For the same compound, the T½ [1, 8] was 160 h and 140 h, the “AUC (0-tlast)” value [1, 9] was 5221 µg·h/mL and 3432 µg·h/mL and the Cmax [1, 9] was 5200 ng/mL. For the same compound, the Tmax [1, 9] was 7.08 days, the T½ [1, 9] was 220 h and 170 h and the “AUC (0-tlast)” value [1, 10] was 7008 µg·h/mL and 9916 µg·h/mL. For the same compound, the Cmax [1, 10] was 6800 ng/mL, the T½ [1, 10] was 210 h and 360 h and 510 h and the “AUC (0-tlast)” value [1, 11] was 9970 µg·h/mL and 6333 µg·h/mL. The Cmax [1, 11] was 7100 ng/mL and 12000 ng/mL and 5100 ng/mL, the T½ [1, 11] was 430 h and 230 h and 1100^b^ h and the “systemic exposure with versus without administration of rHuPH20” value ([1]; rats, single SC 5 and 10 mg/kg, rHuPH20 3000 U) was “similar”. The “systemic exposure as defined by AUC: dose proportionality” value ([1]; rats, single SC, target doses of 5 and 10 mg/kg) was “approximately dose proportional”, the “CAB SC Cmax versus safety threshold” value [2] was less than 22500 ng/mL and the Cmax [3] was 22500 ng/mL. The potency (HIV-1 strains) was “subnanomolar”.
